Experiments:
[1] = Activity against alternating current-induced arrhythmia in guinea pig left atrium at 1 uM; format: functional, Cavia porcellus, Cardiac atrium
Aorta = experiment: Inhibition of calcium-induced contraction of potassium ion depolarized guinea pig aortic strips at 50 uM; format: functional; details: Cavia porcellus
[2] = Negative chronotropic activity assessed as decrease in atrial rate in isolated guinea pig right atrium at 5 uM relative to control; format: functional, Cavia porcellus, Cardiac atrium; set-up: scale not given: the % may be the effect or the level left
[3] = Negative inotropic activity assessed as decrease in developed tension in isolated guinea pig left atrium; format: functional, tissue-based; details: Cavia porcellus, Cardiac atrium
[4] = Negative inotropic activity assessed as decrease in developed tension in isolated guinea pig left atrium at 10 uM relative to control; format: functional, Cavia porcellus, Cardiac atrium; set-up: scale not given: the % may be the effect or the level left

Which results are given for `Cc1cc([N+](=O)[O-])cc(C)c1OC[C@H]1CCCN2CCCC[C@H]12`?
Activity [1]: 23%; inhibition at 50 µM (Aorta): 19%; Activity [2]: 25%; EC50 [3]: 600 nM; Activity [4]: 83%

Reference: ChEMBL document CHEMBL1139835, “Novel quinolizidinyl derivatives as antiarrhythmic agents” (J Med Chem, 2007)
